Data published in article PMC11562385 (RSC Chemical Biology, 2024).
Each block holds one molecule with its values, some of them ahead of it. Peptide text beside a SMILES is read from it.

Assays:
[1] = Variable-temperature CD melting curves (CD-melts at 228±2 nm and 202±2 nm), individual and global two-state fits; assay type: physicochemical; settings: for ΔGF0: CD-melt at 228±2 nm, individual two-state Gibbs-Helmholtz fit (Origin 9.0), phosphate buffer 15 mM pH 6.5 ± MeOH; for ΔGF0 / DHm (fitted value, results from OriginPro) / Tm (fitted value, results from OriginPro): 0-95 °C; for Tm / Hairpin %-fold 291K / Hairpin %-fold 310K: Table S5, individual fit; for Tm: 228±2 nm; for -TΔSF0 / ΔCpF0 / ΔHF0 / ΔHm: as E16; for VT-CD %-fold: folded fraction (χF) at 25 °C from CD-melts, (R) regular / (B) bulged fold; for VT-CD %-fold / VT-CD Tm (°C): phosphate buffer 15 mM pH 6.5, up to 20% MeOH; for Tm 228 nm Indiv.: exciton band 228 nm; for VT-CD Tm (°C): melting temperature from CD-melts; for DHm (fitted value, results from OriginPro) / Tm (fitted value, results from OriginPro): two-state fit of the CD melt θ - θcoil(95) vs T, peptide c 3.2e-5 to 5e-5 M; for %fold 291K: fraction folded at 291 K from the two-state fit of the CD melt
Procedure, shortened: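 Far-UV CD melts (0 to 95 °C) at 15-120 µM peptide in 15 mM phosphate buffer, concentration set by Trp/Tyr absorbance at 280 nm; CD-exciton intensity taken as %-folding probe. Melting curves fitted individually and globally to a two-state model.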

PD1:PDL1 interaction = target: T1, PD1:PDL1 interaction (Homo sapiens, UniProt Q15116); test: PD1/PDL1 immunoblocking ELISA (BPS Bioscience kit cat # 72005); assay type: binding; settings: for LE (ligand efficiency): LE = -RTln(EC50)/HA, HA = non-hydrogen atoms omitting the strap (RWV•••VWE)
T1 construct: purchased BPS Bioscience 72005

[2] = target: T2, cell surface PD1 on CD3+/CD8+ cells of h-PBMCs (Homo sapiens, UniProt Q15116); test: In cellulo PD1 blockade on h-PBMCs by flow cytometry; assay type: cell-based; settings: h-PBMC cultures, 30 h, n = 3
T2 construct: endogenous in cells; host or cells: healthy human PBMCs (CD45+, CD3+/CD8+ gated)
Excerpt: (§1) Then, an ex vivo immune cell culture system using h-PBMCs and exhausted PBMCs from a melanoma patient (e-PBMCs) was used to determine the efficacy of selected ADAPTin peptides on T-effector cells (Fig. 6).[91,92] T-cell exhaustion typically leads to a reduction in cytokine release, cytotoxic activity, as well as slower T-cell proliferation.

e-PBMCs = test: Ex vivo cytokine secretion assay, exhausted PBMCs from a melanoma patient; assay type: cell-based, human; settings: e-PBMC, 6 h, LEGENDplex
Description: as §1, with “proliferation. […] Cytokines concentrations measured at 72 h post-treatment were in most cases over the detection limit range further indicating the effectiveness of our compounds over time.” for “proliferation.”
Non-covalent ADAPTin2c/2p were used as negative control. (A) Levels of inflammatory cytokines measured by flow-cytometry (FACS) after 6 h incubation with electrophilic ADAPTins. Error bars indicate the mean ± SD, (n = 3). (B) Rescue of exhausted PBMCs from a melanoma patient. Levels of inflammatory cytokines and granule-associated proteins released (6 h) measured by FACS (healthy and untreated exhausted PBMCs: h-/e-PBMCs used as positive and negative controls respectively). Error bars indicate the avg ± SD, (n = 2).
Ex Vivo Cytokine Secretion Assay.
Normal PBMCs (from healthy donor) and exhausted PBMCs isolated from the blood sample of a melanoma patient were activated for 48 h before using anti-CD2/28 monoclonal antibodies with IL-2 (2 ng/mL) as mentioned above. After 48 h, PBMCs were washed and incubated with a series of ADAPTins for 6 h. After treatment, media supernatant was collected for cytokine release measurements using the LEGENDplex™ human CD8/NK (13-plex) panel (BioLegend, cat no. 740267). Briefly, samples were mixed with assay buffer and human (13-plex) mixed-beads and plated on the 96-well filter plate. Samples were incubated for 2 h at room temperature, washed, and resuspended beads with detection antibodies according to manufacturer's protocol. Samples were transferred to a 96-well plate to read on a flow cytometer. The flow cytometer and data acquisition software setting were used according to the manufacturer's instructions. Flow analysis was obtained using a CytoFLEX-S flow cytometer equipped with 3 lasers (488 nm blue, 405 nm violet, and 638 nm from Beckman).
Table S9. Raw data of cytokine secretion assay (n=2).
Cytokine assay IL-2 TNF-α IFN-γ Perforin […]

T1 sequence (Q15116 25-167 limits assumed): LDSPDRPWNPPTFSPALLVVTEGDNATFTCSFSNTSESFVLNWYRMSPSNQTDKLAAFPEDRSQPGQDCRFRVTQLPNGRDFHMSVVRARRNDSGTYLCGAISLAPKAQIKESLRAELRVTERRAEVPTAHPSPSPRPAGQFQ
T2 sequence (Q15116 25-288): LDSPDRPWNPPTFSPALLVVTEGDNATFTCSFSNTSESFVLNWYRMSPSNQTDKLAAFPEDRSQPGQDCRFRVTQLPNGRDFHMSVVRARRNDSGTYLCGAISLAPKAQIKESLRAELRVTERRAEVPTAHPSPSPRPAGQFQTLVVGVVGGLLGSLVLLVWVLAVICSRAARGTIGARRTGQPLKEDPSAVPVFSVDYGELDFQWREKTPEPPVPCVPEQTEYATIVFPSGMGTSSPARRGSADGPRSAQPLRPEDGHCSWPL

Molecule: CSCC[C@H](NC(=O)CNC(=O)[C@H](CCC(=O)O)NC(=O)[C@H](CCCNC(=N)N)NC(=O)[C@H](C)NC(=O)[C@@H](NC(=O)[C@H](Cc1c[nH]c2ccccc12)NC(=O)[C@@H](N)CCCNC(=N)N)C(C)C)C(=O)N[C@@H](CC(N)=O)C(=O)N[C@H](C(=O)N[C@@H](CC(=O)O)C(=O)N[C@@H](Cc1c[nH]c2ccccc12)C(=O)N[C@@H](Cc1ccc(O)cc1)C(=O)N[C@@H](Cc1ccccc1)C(=O)N[C@@H](CC(=O)O)C(=O)N[C@@H](Cc1ccc(O)cc1)C(=O)N[C@@H](Cc1c[nH]c2ccccc12)C(=O)N[C@@H](Cc1c[nH]cn1)C(=O)N[C@@H](Cc1c[nH]c2ccccc12)C(=O)N[C@@H](CCC(=O)O)C(=O)O)[C@@H](C)O [2n] (H-RWVAREGMNTDWYFDYWHWE-OH)
ΔGF0 [1]: 0.46 ± 0.01 kcal/mol | Tm [1]: -5.1 oC | Hairpin %-fold 291K ([1]; 291 K): 36 ± 2% | Hairpin %-fold 310K [1]: 23 ± 2% | -TΔSF0 [1]: 6.11 ± 0.19 kcal/mol | ΔCpF0 [1]: -97 ± 14 cal.deg-1.mol-1 | ΔHF0 [1]: -5.65 ± 0.18 kcal/mol | ΔHm [1]: -2.75 ± 0.80 kcal/mol | VT-CD %-fold [1]: 36% (B) | χF (291 K) 228 nm Glob. ([1]; global fit, 228 nm, 291 K): 0% | χF (291 K) 228 nm Indiv. ([1]; individual fit, 228 nm, 291 K): 36% | Tm 228 nm Indiv. ([1]; individual fit): -5.1 oC | VT-CD Tm (°C) [1]: <0 °C | DHm (fitted value, results from OriginPro) ([1]; l 0.1 cm): -2.75455 kcal/mol | Tm (fitted value, results from OriginPro) ([1]; l 0.1 cm): 268.058 K | LE (ligand efficiency) (PD1:PDL1 interaction): 0.07

Molecule: CSCC[C@H](NC(=O)CNC(=O)[C@H](CCC(=O)O)NC(=O)[C@H](CCCNC(=N)N)NC(=O)[C@H](C)NC(=O)[C@@H](NC(=O)[C@H](Cc1c[nH]c2ccccc12)NC(=O)[C@@H](N)CCCNC(=N)N)C(C)C)C(=O)N[C@@H](CC(N)=O)C(=O)N[C@H](C(=O)N[C@@H](CC(=O)O)C(=O)NCC(=O)N[C@@H](Cc1ccc(O)cc1)C(=O)N[C@@H](Cc1ccccc1)C(=O)N[C@@H](CC(=O)O)C(=O)N[C@@H](Cc1ccc(O)cc1)C(=O)N[C@@H](Cc1c[nH]c2ccccc12)C(=O)N[C@@H](Cc1c[nH]cn1)C(=O)N[C@@H](Cc1c[nH]c2ccccc12)C(=O)N[C@@H](CCC(=O)O)C(=O)O)[C@@H](C)O [2o] (H-RWVAREGMNTDGYFDYWHWE-OH)
ΔGF0 [1]: 0.47 ± 0.01 kcal/mol | Tm [1]: 2.8 oC | Hairpin %-fold 291K ([1]; 291 K): 36 ± 1% | Hairpin %-fold 310K [1]: 23 ± 1% | -TΔSF0 [1]: 6.45 ± 0.02 kcal/mol | ΔCpF0 [1]: -2 ± 1 cal.deg-1.mol-1 | ΔHF0 [1]: -5.97 ± 0.01 kcal/mol | ΔHm [1]: -5.93 ± 0.03 kcal/mol | VT-CD %-fold [1]: 50% (B) | %fold 291K ([1]; l 0.1 cm): 36% | Tm 228 nm Glob. ([1]; global fit (shared maximum molar ellipticity), 228 nm): 14.6 oC | Tm 202 nm Glob. ([1]; global fit, 202 nm): -18.3 oC | χF (291 K) 202 nm Glob. ([1]; global fit, 202 nm, 291 K): 19% | χF (291 K) 228 nm Glob. ([1]; global fit, 228 nm, 291 K): 47% | χF (291 K) 202 nm Indiv. ([1]; individual fit, 202 nm, 291 K): 38% | χF (291 K) 228 nm Indiv. ([1]; individual fit, 228 nm, 291 K): 36% | Tm 228 nm Indiv. ([1]; individual fit): 2.8 oC | Tm 202 nm Indiv. ([1]; individual fit, β-bulge band 202 nm): 7.9 oC | VT-CD Tm (°C) [1]: 3 °C | DHm (fitted value, results from OriginPro) ([1]; l 0.1 cm): -5.92662 kcal/mol | Tm (fitted value, results from OriginPro) ([1]; l 0.1 cm): 275.984 K | LE (ligand efficiency) (PD1:PDL1 interaction): 0.07

Molecule: CSCC[C@H](NC(=O)CNC(=O)[C@H](CCC(=O)O)NC(=O)[C@H](CCCNC(=N)N)NC(=O)[C@H](C)NC(=O)[C@@H](NC(=O)[C@H](Cc1c[nH]c2ccccc12)NC(=O)[C@@H](N)CCCNC(=N)N)C(C)C)C(=O)N[C@@H](CC(N)=O)C(=O)N[C@H](C(=O)N[C@@H](CC(=O)O)C(=O)NCC(=O)N[C@@H](Cc1ccc(O)cc1)C(=O)N[C@@H](Cc1ccccc1)C(=O)N[C@@H](CC(N)=O)C(=O)N[C@@H](Cc1ccc(O)cc1)C(=O)N[C@@H](Cc1c[nH]c2ccccc12)C(=O)N[C@H](C(=O)N[C@@H](Cc1c[nH]c2ccccc12)C(=O)N[C@@H](CCC(=O)O)C(=O)O)C(C)C)[C@@H](C)O [2p] (H-RWVAREGMNTDGYFNYWVWE-OH)
EC50 (PD1:PDL1 interaction): 160 nM | PD1 blockade on CD3+/CD8+ T-effector cells [2]: < 20%

VT-CD %-fold [1]: β-structure | fold by CD signature (in words) ([1]; no hairpin exciton, no fit possible): β-sheet structure | LE (ligand efficiency) (PD1:PDL1 interaction): 0.07
Molecule: CC[C@H](C)[C@H](NC(=O)[C@H](Cc1ccc(O)cc1)NC(=O)[C@H](Cc1c[nH]c2ccccc12)NC(=O)[C@H](Cc1ccc(O)cc1)NC(=O)[C@H](CC(N)=O)NC(=O)CNC(=O)[C@H](Cc1ccc(O)cc1)NC(=O)[C@H](C)NC(=O)[C@H](CCCNC(=N)N)NC(=O)[C@H](C)NC(=O)[C@@H](NC(=O)[C@H](Cc1c[nH]c2ccccc12)NC(=O)[C@@H](N)CCCNC(=N)N)C(C)C)C(=O)N[C@@H](CC(=O)O)C(=O)N[C@H](C(=O)N[C@@H](Cc1c[nH]c2ccccc12)C(=O)N[C@@H](Cc1c[nH]cn1)C(=O)N[C@@H](Cc1c[nH]c2ccccc12)C(=O)N[C@@H](CCC(=O)O)C(=O)O)C(C)C [2q] (H-RWVARAYGNYWYIDVWHWE-OH)

Molecule: CC[C@H](C)[C@H](NC(=O)[C@H](Cc1ccc(O)cc1)NC(=O)CNC(=O)[C@H](Cc1ccc(O)cc1)NC(=O)[C@H](CC(N)=O)NC(=O)CNC(=O)[C@H](Cc1ccc(O)cc1)NC(=O)[C@H](C)NC(=O)[C@H](CCCNC(=N)N)NC(=O)[C@H](C)NC(=O)[C@@H](NC(=O)[C@H](Cc1c[nH]c2ccccc12)NC(=O)[C@@H](N)CCCNC(=N)N)C(C)C)C(=O)N[C@@H](CC(=O)O)C(=O)N[C@H](C(=O)N[C@@H](Cc1c[nH]c2ccccc12)C(=O)N[C@@H](Cc1c[nH]cn1)C(=O)N[C@@H](Cc1c[nH]c2ccccc12)C(=O)N[C@@H](CCC(=O)O)C(=O)O)C(C)C [2r] (H-RWVARAYGNYGYIDVWHWE-OH)
ΔGF0 [1]: -1.15 ± 0.01 kcal/mol | Tm [1]: 67.6 oC | Hairpin %-fold 291K ([1]; 291 K): 91 ± 1% | Hairpin %-fold 310K [1]: 80 ± 1% | -TΔSF0 [1]: 7.13 ± 0.3 kcal/mol | ΔCpF0 [1]: -44 ± 9 cal.deg-1.mol-1 | ΔHF0 [1]: -8.29 ± 0.3 kcal/mol | ΔHm [1]: -10.2 ± 0.2 kcal/mol | VT-CD %-fold [1]: 91% (B) | %fold 291K ([1]; c 6.2e-5 M, l 0.1 cm): 91% | DHm (fitted value, OriginPro) ([1]; two-state fit of the CD melt (θ - θcoil(95) vs T, 0-95 °C), l 0.1 cm, enthalpy of folding at Tm): -10.1866 kcal/mol | LE (ligand efficiency) (PD1:PDL1 interaction): 0.08

Molecule: pembrolizumab: FDA-approved anti-PD1 antibody; 'Pem' = its CDR-H3 loop in Table 1 [reference compound]
IFN-γ (e-PBMCs; replicate 1): 4359.77 pg/mL | IL-2 (e-PBMCs; replicate 1): 0.44 pg/mL | Perforin (e-PBMCs; replicate 1): 227.36 pg/mL | TNF-α (e-PBMCs; replicate 1): 500.12 pg/mL | IFN-γ (e-PBMCs; replicate 2): 7617.66 pg/mL | IL-2 (e-PBMCs; replicate 2): 275.42 pg/mL | Perforin (e-PBMCs; replicate 2): 438.61 pg/mL | TNF-α (e-PBMCs; replicate 2): 1224.22 pg/mL
